Assay results reported in US20090143285A1, “TARGET PROTEIN AND TARGET GENE FOR DRUG DISCOVERY AND SCREENING METHOD” (REVERSE PROTEOMICS RESEARCH INSTITUTE CO., LTD., priority 2005, published 2009).
Where a chain is given by its changes, count along the chain named. “Also recorded” adds a separate entry of the source.

Tests used:
[1] = system: FLJXXXXX-derived proteins; experiment: SEC/MS spin column interaction analysis of FLJXXXXX-derived proteins and various compounds (Tables 30-1 to 30-4); type: binding, human; conditions: SEC spin column filtrate, spectral intensity increased with doses of compound and protein
Description: Mass analysis was performed using LCQ DECA XP (Thermoelectron) or Q-TOF micro (Micromass), equipped with an ESI probe. The LC pump used was Agilent 1100 (Yokogawa Analytical Systems), and the autosampler used was HTC-PAL (CTC Analytics) equipped with a cooling stacker. The SEC column used was a micro-LC column or a 384-well spin column.
In the 384-well spin column method, Unifilter 100 (Whatman), packed with 10 μL (dry volume) of Bio-Gel P6 (BIO-RAD) and swollen with milliQ water, was used as the SEC column. […] The SEC spin column was mounted on an acetonitrile-aliquoted 384-well U-bottom plate and centrifuged; the SEC spin column filtrate, which is a protein fraction, was recovered in 50% acetonitrile. The protein precipitate produced by the acetonitrile was removed via centrifugation and filtration for deproteinization; the resulting filtrate was concentrated by centrifugal concentration and re-dissolved in 10 μL of 50% methanol to obtain a mass analysis sample. The mobile phase supplied to the mass analyzer was 0.1% formic acid/50% methanol solution in the positive ion mode, and 0.1% ammonia/50% methanol solution in the negative ion mode; these mobile phases were used at a flow rate of 40 μL/min. 2-μL of mass analysis samples were injected using an autosampler at 2-minute intervals; the mass spectral intensity of the compound was measured to retrieve the spectral intensity of the pharmaceutical compound contained in the SEC spin column filtrate (protein fraction eluted from SEC).

FLJ25288-derived protein = target: T1, FLJ25288-derived protein (Homo sapiens, UniProt P09525, T85M); experiment: SEC/MS interaction analysis, FLJ25288-derived protein (Annexin A4); type: binding; conditions: TSKgel super SW2000 micro-LC column (1.0 mm ID×30 mm); presence vs absence of protein; data not shown
T1 construct: His-tag (N); made in house; host or cells: Escherichia coli BL21star(DE3)pLysS
T1 sequence (P09525 1-321 isoform P09525-3 T87M): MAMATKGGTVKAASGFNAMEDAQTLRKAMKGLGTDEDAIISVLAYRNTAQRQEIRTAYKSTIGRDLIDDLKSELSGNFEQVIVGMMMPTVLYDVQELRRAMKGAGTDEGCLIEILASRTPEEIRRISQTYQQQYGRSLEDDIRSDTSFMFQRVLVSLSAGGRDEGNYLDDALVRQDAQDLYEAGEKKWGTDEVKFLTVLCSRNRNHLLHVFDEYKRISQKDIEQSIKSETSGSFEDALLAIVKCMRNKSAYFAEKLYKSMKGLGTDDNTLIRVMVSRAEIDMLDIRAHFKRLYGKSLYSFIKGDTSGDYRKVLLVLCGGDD
Source text: (§1) To analyze the interactions between commonly used drugs and proteins expressed from human full-length cDNA clones while keeping both the proteins and the compounds in non-modified, non-immobilized state, size exclusion chromatography (SEC) and mass analysis were used in combination. The specific procedures are shown below.
(§2) The compound-protein mixture prepared in step 1 was subjected to chromatography using an SEC column, the compound and the protein were separated by SEC, and the compound that interacted with the bound compound or protein contained in the protein fraction was analyzed using a mass analyzer.
(§3) Protein concentrations were measured using BCA Protein Assay (PIERCE), in consideration of the purity calculated by SDS-PAGE.
(§4) Mass analysis was performed using LCQ DECA XP (Thermoelectron) or Q-TOF micro (Micromass), equipped with an ESI probe. […]
(§5) In the 384-well spin column method, Unifilter 100 (Whatman), packed with 10 μL (dry volume) of Bio-Gel P6 (BIO-RAD) and swollen with milliQ water, was used as the SEC column. […] 2-μL of mass analysis samples were injected using an autosampler at 2-minute intervals; the mass spectral intensity of the compound was measured to retrieve the spectral intensity of the pharmaceutical compound contained in the SEC spin column filtrate (protein fraction eluted from SEC).

FLJ39553-derived protein = target: T2, FLJ39553-derived protein (Homo sapiens, UniProt Q6P6B1, N326S); experiment: SEC/MS interaction analysis, FLJ39553-derived protein (hypothetical protein FLJ39553); type: binding; conditions: TSKgel super SW2000 micro-LC column (1.0 mm ID×30 mm); presence vs absence of protein; data not shown
T2 construct: His-tag (N); made in house; host or cells: Escherichia coli BL21star(DE3)pLysS
T2 sequence (Q6P6B1 1-374 N326S): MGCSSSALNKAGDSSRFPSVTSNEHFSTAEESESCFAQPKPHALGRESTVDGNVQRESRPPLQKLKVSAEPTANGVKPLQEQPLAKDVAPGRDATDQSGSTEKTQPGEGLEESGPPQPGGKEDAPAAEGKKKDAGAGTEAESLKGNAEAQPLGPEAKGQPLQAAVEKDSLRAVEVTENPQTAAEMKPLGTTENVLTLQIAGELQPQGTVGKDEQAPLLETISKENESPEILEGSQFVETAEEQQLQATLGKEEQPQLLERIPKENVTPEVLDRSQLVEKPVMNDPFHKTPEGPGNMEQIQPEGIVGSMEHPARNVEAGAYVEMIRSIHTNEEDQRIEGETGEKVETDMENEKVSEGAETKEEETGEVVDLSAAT
Source text: as §1, §2, §3, §4, §5

FLJ10537-derived protein = target: T3, FLJ10537-derived protein (Homo sapiens, UniProt Q9NR28); experiment: SEC/MS interaction analysis, FLJ10537-derived protein (DIABLO homolog; SMAC); type: binding; conditions: TSKgel super SW2000 micro-LC column (1.0 mm ID×30 mm); presence vs absence of protein; data not shown
T3 construct: His-tag (N); made in house; host or cells: Escherichia coli BL21star(DE3)pLysS
T3 sequence (Q9NR28 1-186 isoform Q9NR28-2): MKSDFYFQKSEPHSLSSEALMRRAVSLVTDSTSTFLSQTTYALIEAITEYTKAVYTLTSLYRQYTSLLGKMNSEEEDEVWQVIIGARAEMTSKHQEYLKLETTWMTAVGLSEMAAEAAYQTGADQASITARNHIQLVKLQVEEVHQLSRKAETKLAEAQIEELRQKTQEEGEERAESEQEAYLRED
Source text: as §1, §2, §3, §4, §5

FLJ41991-derived protein = target: T4, FLJ41991-derived protein (Homo sapiens, UniProt P57764, E293G); experiment: SEC/MS interaction analysis, FLJ41991-derived protein (GSDMDC1); type: binding
T4 construct: His-tag (N); made in house; host or cells: Escherichia coli BL21star(DE3)pLysS (pDEST17)
T4 sequence (P57764 265-484 E293G): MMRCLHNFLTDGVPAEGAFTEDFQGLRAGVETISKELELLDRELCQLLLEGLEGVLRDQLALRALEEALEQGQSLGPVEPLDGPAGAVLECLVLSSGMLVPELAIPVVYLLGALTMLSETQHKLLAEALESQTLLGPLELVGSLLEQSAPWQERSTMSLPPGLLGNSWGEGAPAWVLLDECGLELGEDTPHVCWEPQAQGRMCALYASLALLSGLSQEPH
Procedure, shortened: (§6)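 Compound–protein mixtures separated by SEC (micro-LC column with 10 mM ammonium acetate mobile phase, or Bio-Gel P6 spin column) and analysed by ESI mass spectrometry. Interaction inferred from a protein-dependent shift in the compound's mass chromatogram, or from compound signal intensity in the eluted protein fraction.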

FLJ38897-derived protein = target: T5, FLJ38897-derived protein (Homo sapiens, UniProt P57764); experiment: SEC/MS interaction analysis, FLJ38897-derived protein (GSDMDC1); type: binding; conditions: spin column method; mixture with protein vs buffer solution alone; data not shown
T5 construct: His-tag (N); made in house; host or cells: Escherichia coli BL21star(DE3)pLysS
T5 sequence (P57764 265-484): T4 sequence (P57764 265-484 E293G) with G29E
Procedure, shortened: as §6

FLJ11211-derived protein = target: T6, FLJ11211-derived protein (Homo sapiens, UniProt Q9Y222, I712M); experiment: SEC/MS interaction analysis, FLJ11211-derived protein (DMTF1; DMP1); type: binding; conditions: spin column method; mixture with protein vs buffer solution alone; data not shown
T6 construct: corresponds to a partial peptide of human DMP1 on the C-terminal side thereof (303 amino acid residues); His-tag (N); made in house; host or cells: Escherichia coli BL21star(DE3)pLysS
T6 sequence (Q9Y222 458-760 I712M): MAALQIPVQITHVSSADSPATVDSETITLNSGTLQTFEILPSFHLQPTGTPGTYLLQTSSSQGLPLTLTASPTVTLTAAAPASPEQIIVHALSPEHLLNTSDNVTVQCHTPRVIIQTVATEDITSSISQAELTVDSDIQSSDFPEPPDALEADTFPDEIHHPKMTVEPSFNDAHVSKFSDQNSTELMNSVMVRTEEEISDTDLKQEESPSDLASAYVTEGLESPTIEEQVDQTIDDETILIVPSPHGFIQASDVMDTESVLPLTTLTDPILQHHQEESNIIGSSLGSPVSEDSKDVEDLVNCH
Source text: as §1, §2, §3, §4, §5

FLJ22317-derived protein = target: T7, FLJ22317-derived protein (Homo sapiens, UniProt Q9NWV8); experiment: SEC/MS interaction analysis, FLJ22317-derived protein (HSPC142 protein); type: binding; conditions: TSKgel super SW2000 micro-LC column (1.0 mm ID×30 mm); presence vs absence of protein; data not shown
T7 construct: His-tag (N); made in house; host or cells: Escherichia coli BL21star(DE3)pLysS
Source text: The specific procedures are shown below.

T7 sequence (Q9NWV8 whole entry): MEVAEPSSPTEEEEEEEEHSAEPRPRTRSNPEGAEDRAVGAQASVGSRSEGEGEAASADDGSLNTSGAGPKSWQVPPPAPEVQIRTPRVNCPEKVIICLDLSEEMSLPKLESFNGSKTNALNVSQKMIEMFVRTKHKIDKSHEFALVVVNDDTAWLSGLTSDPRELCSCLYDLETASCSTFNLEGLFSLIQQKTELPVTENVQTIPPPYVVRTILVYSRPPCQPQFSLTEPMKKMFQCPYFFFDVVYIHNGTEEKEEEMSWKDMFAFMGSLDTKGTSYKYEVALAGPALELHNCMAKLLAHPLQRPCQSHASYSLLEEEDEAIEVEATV

**Q.** Which “FLJ No of the derived protein with which the compound was judged to exhibit a concentration-dependent interaction” value [1] does the source give for `CN(Cc1cnc2nc(N)nc(N)c2n1)c1ccc(C(=O)N[C@@H](CCC(=O)O)C(=O)O)cc1` (racemic) [amethopterin (R, S), amethopterin] here?
**A.** FLJ25288

**Q.** And the “interaction judged from mass chromatogram of the compound (elution from SEC micro-LC column)” value (FLJ25288-derived protein)?
**A.** there was an interaction

**Q.** Which “FLJ No of the derived protein with which the compound was judged to exhibit a concentration-dependent interaction” value [1] does the source give for `C[C@@H]1[C@H](O)[C@@H](C)/C=C/C=C/C=C/C=C/C=C/C=C/C=C/[C@H](O[C@@H]2O[C@H](C)[C@@H](O)[C@H](N)[C@@H]2O)C[C@@H]2O[C@](O)(C[C@@H](O)C[C@@H](O)[C@H](O)CC[C@@H](O)C[C@@H](O)CC(=O)O[C@H]1C)C[C@H](O)[C@H]2C(=O)O` [amphotericin B] here?
**A.** FLJ39553

**Q.** What about the “interaction judged from mass chromatogram of the compound (elution from SEC micro-LC column)” value (FLJ39553-derived protein) of the same compound?
**A.** there was an interaction

**Q.** Which results are given for `COc1c2occc2cc2ccc(=O)oc12` [methoxsalen]?
**A.** interaction judged from mass chromatogram of the compound (elution from SEC micro-LC column) (FLJ10537-derived protein): there was an interaction; FLJ No of the derived protein with which the compound was judged to exhibit a concentration-dependent interaction [1]: FLJ10537

**Q.** Which results are given for `CC(C)(C)c1ccc(C(O)CCCN2CCC(C(O)(c3ccccc3)c3ccccc3)CC2)cc1` (stereo not drawn) [terfenadine]?
**A.** FLJ No of the derived protein with which the compound was judged to exhibit a concentration-dependent interaction [1]: FLJ11211; also recorded: FLJ38897; also recorded: FLJ41991; spectrum intensity of the compound in the SEC spin column filtrate (FLJ41991-derived protein; compound 12.5 μM, protein 0 μM): 26814; spectrum intensity of the compound in the SEC spin column filtrate (FLJ41991-derived protein; compound 12.5 μM, protein 5 μM): 200843; spectrum intensity of the compound in the SEC spin column filtrate (FLJ41991-derived protein; compound 12.5 μM, protein 10 μM): 376865; spectrum intensity of the compound in the SEC spin column filtrate (FLJ41991-derived protein; compound 12.5 μM, protein 25 μM): 1734729; spectrum intensity of the compound in the SEC spin column filtrate (FLJ41991-derived protein; compound 25 μM, protein 0 μM): 87636; spectrum intensity of the compound in the SEC spin column filtrate (FLJ41991-derived protein; compound 25 μM, protein 5 μM): 311313; spectrum intensity of the compound in the SEC spin column filtrate (FLJ41991-derived protein; compound 25 μM, protein 10 μM): 949465; spectrum intensity of the compound in the SEC spin column filtrate (FLJ41991-derived protein; compound 25 μM, protein 25 μM): 4190413; spectrum intensity of the compound in the SEC spin column filtrate (FLJ41991-derived protein; compound 62.5 μM, protein 0 μM): 231173; spectrum intensity of the compound in the SEC spin column filtrate (FLJ41991-derived protein; compound 62.5 μM, protein 5 μM): 1759965; spectrum intensity of the compound in the SEC spin column filtrate (FLJ41991-derived protein; compound 62.5 μM, protein 10 μM): 5619658; spectrum intensity of the compound in the SEC spin column filtrate (FLJ41991-derived protein; compound 62.5 μM, protein 25 μM): 9678283; interaction judged from spectrum intensity of the compound in the SEC spin column filtrate (protein fraction eluted from SEC) (FLJ41991-derived protein; spin column method, doses of both compound and protein varied): concentration-dependent interaction; interaction judged from mass spectrum peak intensity of the compound in the spin column filtrate (FLJ38897-derived protein): an interaction was observed; interaction judged from mass spectrum peak intensity of the compound in the spin column filtrate (FLJ11211-derived protein): there was an interaction

**Q.** Which results are given for solanine α?
**A.** FLJ No of the derived protein with which the compound was judged to exhibit a concentration-dependent interaction [1]: FLJ22317; also recorded: FLJ39553; interaction judged from mass chromatogram of the compound (elution from SEC micro-LC column) (FLJ22317-derived protein): there was an interaction
